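Tested at 5 concentrations; 48 h exposure; 96-well plates; endpoints linearly interpolated, else capped at highest concentration. TGI is the concentration that stops growth completely.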
What was measured:
Assay in all cases: DTP human tumour cell line panel, 48 h
786-0 renal = tested on: 786-0 renal
A549 NSCLC = tested on: A549 NSCLC
ACHN renal = tested on: ACHN renal
BT-549 breast = tested on: BT-549 breast
CAKI-1 renal = tested on: CAKI-1 renal
CCRF-CEM leukemia = tested on: CCRF-CEM leukemia
COLO 205 colon = tested on: COLO 205 colon
DU-145 prostate = tested on: DU-145 prostate
EKVX NSCLC = tested on: EKVX NSCLC
HCC-2998 colon = tested on: HCC-2998 colon
HCT-116 colon = tested on: HCT-116 colon
HCT-15 colon = tested on: HCT-15 colon
HL-60(TB) leukemia = tested on: HL-60(TB) leukemia
HOP-62 NSCLC = tested on: HOP-62 NSCLC
HOP-92 NSCLC = tested on: HOP-92 NSCLC
HS 578T breast = tested on: HS 578T breast
HT29 colon = tested on: HT29 colon
IGROV1 ovarian = tested on: IGROV1 ovarian
K-562 leukemia = tested on: K-562 leukemia
KM12 colon = tested on: KM12 colon
LOX IMVI melanoma = tested on: LOX IMVI melanoma
M14 melanoma = tested on: M14 melanoma
MALME-3M melanoma = tested on: MALME-3M melanoma
MCF7 breast = tested on: MCF7 breast
MDA-MB-231 breast = tested on: MDA-MB-231 breast
MDA-MB-435 = tested on: MDA-MB-435
MDA-N = tested on: MDA-N
MOLT-4 leukemia = tested on: MOLT-4 leukemia
NCI-H226 lung = tested on: NCI-H226 lung
NCI-H23 lung = tested on: NCI-H23 lung
NCI-H460 lung = tested on: NCI-H460 lung
NCI-H522 lung = tested on: NCI-H522 lung
NCI/ADR-RES ovarian = tested on: NCI/ADR-RES ovarian
OVCAR-3 ovarian = tested on: OVCAR-3 ovarian
OVCAR-4 ovarian = tested on: OVCAR-4 ovarian
OVCAR-5 ovarian = tested on: OVCAR-5 ovarian
OVCAR-8 ovarian = tested on: OVCAR-8 ovarian
PC-3 prostate = tested on: PC-3 prostate
RPMI-8226 leukemia = tested on: RPMI-8226 leukemia
RXF 393 renal = tested on: RXF 393 renal
SF-268 CNS = tested on: SF-268 CNS
SF-295 CNS = tested on: SF-295 CNS
SF-539 CNS = tested on: SF-539 CNS
SK-MEL-2 melanoma = tested on: SK-MEL-2 melanoma
SK-MEL-28 melanoma = tested on: SK-MEL-28 melanoma
SK-MEL-5 melanoma = tested on: SK-MEL-5 melanoma
SK-OV-3 ovarian = tested on: SK-OV-3 ovarian
SN12C renal = tested on: SN12C renal
SNB-19 CNS = tested on: SNB-19 CNS
SNB-75 CNS = tested on: SNB-75 CNS
SR leukemia = tested on: SR leukemia
SW-620 colon = tested on: SW-620 colon
T-47D breast = tested on: T-47D breast
TK-10 renal = tested on: TK-10 renal
U251 CNS = tested on: U251 CNS
UACC-257 melanoma = tested on: UACC-257 melanoma
UACC-62 melanoma = tested on: UACC-62 melanoma
UO-31 renal = tested on: UO-31 renal
A498 renal = tested on: A498 renal

Cc1cccc(Nc2nc3ccccc3nc2NS(=O)(=O)c2ccc(N)cc2)c1
TGI (786-0 renal): > 100 µM
TGI (A549 NSCLC): > 100 µM
TGI (ACHN renal): > 100 µM
TGI (BT-549 breast): > 100 µM
TGI (CAKI-1 renal): > 100 µM
TGI (CCRF-CEM leukemia): 57.6 µM
TGI (COLO 205 colon): > 100 µM
TGI (DU-145 prostate): > 100 µM
TGI (EKVX NSCLC): > 100 µM
TGI (HCC-2998 colon): 67.6 µM
TGI (HCT-116 colon): > 100 µM
TGI (HCT-15 colon): > 100 µM
TGI (HL-60(TB) leukemia): > 100 µM
TGI (HOP-62 NSCLC): > 100 µM
TGI (HOP-92 NSCLC): > 100 µM
TGI (HS 578T breast): > 100 µM
TGI (HT29 colon): > 100 µM
TGI (IGROV1 ovarian): > 100 µM
TGI (K-562 leukemia): > 100 µM
TGI (KM12 colon): > 100 µM
TGI (LOX IMVI melanoma): > 100 µM
TGI (M14 melanoma): > 100 µM
TGI (MALME-3M melanoma): > 100 µM
TGI (MCF7 breast): > 100 µM
TGI (MDA-MB-231 breast): > 100 µM
TGI (MDA-MB-435): > 100 µM
TGI (MDA-N): > 100 µM
TGI (MOLT-4 leukemia): 59.5 µM
TGI (NCI-H226 lung): > 100 µM
TGI (NCI-H23 lung): 53.3 µM
TGI (NCI-H460 lung): > 100 µM
TGI (NCI-H522 lung): > 100 µM
TGI (NCI/ADR-RES ovarian): > 100 µM
TGI (OVCAR-3 ovarian): > 100 µM
TGI (OVCAR-4 ovarian): 42.6 µM
TGI (OVCAR-5 ovarian): > 100 µM
TGI (OVCAR-8 ovarian): > 100 µM
TGI (PC-3 prostate): > 100 µM
TGI (RPMI-8226 leukemia): > 100 µM
TGI (RXF 393 renal): 70.5 µM
TGI (SF-268 CNS): > 100 µM
TGI (SF-295 CNS): > 100 µM
TGI (SF-539 CNS): 93.9 µM
TGI (SK-MEL-2 melanoma): 81.5 µM
TGI (SK-MEL-28 melanoma): > 100 µM
TGI (SK-MEL-5 melanoma): > 100 µM
TGI (SK-OV-3 ovarian): > 100 µM
TGI (SN12C renal): > 100 µM
TGI (SNB-19 CNS): > 100 µM
TGI (SNB-75 CNS): > 100 µM
TGI (SR leukemia): > 100 µM
TGI (SW-620 colon): > 100 µM
TGI (T-47D breast): > 100 µM
TGI (TK-10 renal): > 100 µM
TGI (U251 CNS): 53.8 µM
TGI (UACC-257 melanoma): > 100 µM
TGI (UACC-62 melanoma): > 100 µM
TGI (UO-31 renal): 56.6 µM

C#CCN(Cc1ccc2nc(-c3ccccc3)c(Cl)nc2c1)c1ccc(F)cc1
TGI (786-0 renal): > 100 µM
TGI (A498 renal): > 100 µM
TGI (A549 NSCLC): > 100 µM
TGI (ACHN renal): > 100 µM
TGI (BT-549 breast): > 100 µM
TGI (CAKI-1 renal): > 100 µM
TGI (CCRF-CEM leukemia): > 100 µM
TGI (COLO 205 colon): > 100 µM
TGI (DU-145 prostate): > 100 µM
TGI (EKVX NSCLC): > 100 µM
TGI (HCC-2998 colon): > 100 µM
TGI (HCT-116 colon): > 100 µM
TGI (HCT-15 colon): > 100 µM
TGI (HL-60(TB) leukemia): 87.2 µM
TGI (HOP-62 NSCLC): > 100 µM
TGI (HOP-92 NSCLC): > 100 µM
TGI (HS 578T breast): > 100 µM
TGI (HT29 colon): > 100 µM
TGI (IGROV1 ovarian): > 100 µM
TGI (KM12 colon): > 100 µM
TGI (LOX IMVI melanoma): > 100 µM
TGI (M14 melanoma): > 100 µM
TGI (MALME-3M melanoma): > 100 µM
TGI (MCF7 breast): > 100 µM
TGI (MDA-MB-231 breast): > 100 µM
TGI (MDA-MB-435): > 100 µM
TGI (MDA-N): > 100 µM
TGI (MOLT-4 leukemia): 44.6 µM
TGI (NCI-H23 lung): > 100 µM
TGI (NCI-H460 lung): > 100 µM
TGI (NCI-H522 lung): > 100 µM
TGI (NCI/ADR-RES ovarian): > 100 µM
TGI (OVCAR-3 ovarian): > 100 µM
TGI (OVCAR-4 ovarian): > 100 µM
TGI (OVCAR-5 ovarian): > 100 µM
TGI (OVCAR-8 ovarian): > 100 µM
TGI (PC-3 prostate): > 100 µM
TGI (RPMI-8226 leukemia): > 100 µM
TGI (SF-268 CNS): > 100 µM
TGI (SF-295 CNS): > 100 µM
TGI (SF-539 CNS): > 100 µM
TGI (SK-MEL-2 melanoma): > 100 µM
TGI (SK-MEL-28 melanoma): > 100 µM
TGI (SK-MEL-5 melanoma): > 100 µM
TGI (SN12C renal): > 100 µM
TGI (SNB-19 CNS): > 100 µM
TGI (SNB-75 CNS): > 100 µM
TGI (SR leukemia): > 100 µM
TGI (SW-620 colon): > 100 µM
TGI (T-47D breast): > 100 µM
TGI (TK-10 renal): > 100 µM
TGI (U251 CNS): > 100 µM
TGI (UACC-257 melanoma): > 100 µM
TGI (UACC-62 melanoma): > 100 µM
TGI (UO-31 renal): > 100 µM

— PubChem BioAssay (NCI)
